The values that follow come from patent US20250197416A1, “PARTHENOLIDE DERIVATIVES AND USE THEREOF” (University of Rochester, priority 2022, published 2025).

The structures appear in SMILES notation.

Data set [1] relates to human cancer cells: PC3, SK-N-MC, MDA-MB-231, A549, HeLa, SK-MEL-2, SJSA-1, HCT-116. Nature of the data set: MTT cell viability assay, panel of cancer cell lines. The note with it: 24 hours; for anticancer activity profile (cytotoxicity spectrum / cancer-type specificity): reduction of cell viability at 10 μM and 20 μM; for anticancer activity (reduction of cancer cell viability): 10 μM and 20 μM. Format: cell-based. How it is done: (§1) The anticancer activity of the compounds was determined using a MTT (3-[4,5-dimethylthiazol-2-yl]-2,5 diphenyl tetrazolium bromide) assay, which measures cell viability upon incubation of the cells with the compounds. […] Other notable structure-activity insights include the large impact on the linkage utilized for macrocyclization of 14-hydroxy-PTL-derived AB08 and AB24 on the cancer cell specificity of these molecules.
Experimental Procedures. All cancer cell lines were maintained in a 37° C. humidified incubator with 5% C02. A549, MDA-MB-231, PC-3, SK-N-MC, HeLa, SJSA-1, HCT-116, and SK-MEL-2 cells were cultured in DMEM medium (Gibco) supplemented with 10% FBS (Gibco) and 100 I.U./ml penicillin-streptomycin (Sigma). Adherent cells were dissociated using Accutase (Millipore) or trypsin-EDTA 0.25% (Gibco). Adherent cells were seeded in a 96-well plate at a density of 1000-20,000 cells per well in 180 μl complete DMEM media. Suspension cells were seeded in conical 96-well plates (Nunc) at a density of 30,000 cells per well in 90 ul of complete α-MEM media devoid of phenol red indicator. The plates were incubated in a humidified incubator for 16 hours prior to treatment. PTL analogs were prepared as concentrated stocks (2 mM) in DMSO and stored at −30° C. Prior to testing, the analogs were diluted into complete cell culture medium and the media was supplemented with sterile DMSO (10% of final volume). For the initial cytotoxicity screening, the compounds were added to the cells in 20 μl aliquots to give a final concentration of 20 μM and 10 μM parthenologs and 1% DMSO (n=3). Following a 24-hour incubation, the culture media from the adherent cell plates (e.g., HeLa, A549) was aspirated and replaced with 100 pd of 1 mg/mL Thiazolyl Blue Tetrazolium Bromide (MTT, Fisher) in complete culture medium devoid of phenol red. After incubation at 37° C. for 1 hour, the plates were centrifuged (4000 rpm, 5 minutes), the media was removed and 100 ul of DMSO was added to solubilize the formazan product. The resulting OD was measured at 550 nm using a multi-well plate reader (Tecan). Suspension cells were treated for 24 hours in the presence or in the absence of the compounds at 10 μM and 20 μM, followed by measurement of cell viability using alamarBlue stain. After incubation, […] of AlamarBlue (Invitrogen) was added to each well and incubated until color change was observed, typically approximately 20-24 hours, in the control wells (1% DMSO in media, no compound). The resulting absorbance was measured at 570 nm and 600 nm using a multi-well plate reader (Tecan).
Background: Tetrazolium dyes change colour on reduction, which living cells bring about.

The test system of data set [2] is colon cancer cells (HCT-116). Nature of the data set: MTT cell viability assay, HCT-116. Format: cell-based, human. As to the method: as §1
(§2) Experimental Procedures. All cancer cell lines were maintained in a 37° C. humidified incubator with 5% C02. A549, MDA-MB-231, PC-3, SK-N-MC, HeLa, SJSA-1, HCT-116, and SK-MEL-2 cells were cultured in DMEM medium (Gibco) supplemented with 10% FBS (Gibco) and 100 I.U./ml penicillin-streptomycin (Sigma). Adherent cells were dissociated using Accutase (Millipore) or trypsin-EDTA 0.25% (Gibco). Adherent cells were seeded in a 96-well plate at a density of 1000-20,000 cells per well in 180 μl complete DMEM media. Suspension cells were seeded in conical 96-well plates (Nunc) at a density of 30,000 cells per well in 90 ul of complete α-MEM media devoid of phenol red indicator. The plates were incubated in a humidified incubator for 16 hours prior to treatment. […] The resulting OD was measured at 550 nm using a multi-well plate reader (Tecan). […] The resulting absorbance was measured at 570 nm and 600 nm using a multi-well plate reader (Tecan).

For data set [3], the system named is cervical (HeLa) cancer cells. Nature of the data set: MTT cell viability assay, HeLa. Conditions: 10 μM and 20 μM, 24 hours. It is filed as cell-based, human. How it is done:
as §1, §2

For data set [4] the following is noted: compared with parthenolide; cited from earlier work.
The test system of another data set is leukemia cell line HL-60. Briefly: alamarBlue cell viability assay, HL-60. The note with it: 10 μM and 20 μM, 24 hours. Format: cell-based. How it is done: The antileukemic activity of the PTL analogs was evaluated using the leukemia cell line HL-60 and the leukemia stem cell line M9-ENL1. To measure the compound activity against hematologic cells, cells were treated for 24 hours in the presence or in the absence of the PTL analog at 10 μM and 20 μM, followed by measurement of cell viability using alamarBlue stain (FIG. 9).
as §2, with “treatment. PTL analogs were prepared as concentrated stocks (2 mM) in DMSO and stored at −30° C.” for “treatment.”
(The colour change of resazurin is a common sign of viable cells or microbes.)

Data set [5] concerns lung adenocarcinoma (A549). Nature of the data set: MTT cell viability assay, A549. Format: cell-based, human. The note with it: relative to PTL. As to the method:
as §1, §2

For data set [6], the system named is breast cancer cells (MDA-MB-231). Briefly: MTT cell viability assay, MDA-MB-231. Format: cell-based, human. The note with it: relative to PTL. How it is done:
as §1, §2

For `C=C1C(=O)O[C@@H]2[C@H]3O[C@]3(C)CC/C=C3\COS(=O)(=O)O[C@H]3C[C@@H]12` [JMB03], the “anticancer activity profile (cytotoxicity spectrum / cancer-type specificity)” value in data set [1] is reported as “high cancer-type specificity”. In addition, the “selective activity against colon (HCT-116) cancer cells” value in data set [2] (10 μM and 20 μM, 24 hours) is “selective activity”. In addition, the “selective activity against cervical (HeLa) cancer cells” value in data set [3] is reported as “selective activity”. On to `CC1=CCCC2(C)OC2C2OC(=O)C(C)C2CC1` (stereo not shown), for which the “anticancer and anti-inflammatory activity after reduction of the α-methylene-γ-lactone group” value in data set [4] is reported as “complete loss of activity”. For the molecule `C=C1CC[C@H]2C(=C)C(=O)O[C@@H]2[C@H]2O[C@]2(C)CCC=CCCC(=O)OC1` [AB07], the “increased potency compared to PTL, based on half-maximal lethal dose (LD50)” value in data set [2] (HCT-116, relative to PTL) was above 3 fold. Consider `C=C1C(=O)O[C@@H]2[C@H]3O[C@]3(C)CC[C@@H]3C(=CC[C@@H]4C(=O)OC(=O)[C@@H]43)CC[C@@H]12` [AB18], for which the “anticancer activity (reduction of cancer cell viability)” value in data set [1] is given as “lower activity against the same cell lines”. As for `C=C1C(=O)O[C@@H]2[C@H]3O[C@]3(C)CCC(C3C=CC(=O)O3)C(C=O)C(=O)C[C@@H]12` (stereo partly shown) [JMB07], the “anticancer activity against HL-60” value in the data set on leukemia cell line HL-60 is given as “relatively selective anticancer activity”.

In the case of `C=C1C(=O)O[C@@H]2[C@H]3O[C@]3(C)CCC(Sc3ccccc3)C(C=O)C(=O)C[C@@H]12` (stereo partly shown) [JMB06], in the data set with leukemia cell line HL-60, the “anticancer activity against HL-60” value is reported as “relatively selective anticancer activity”.

Take `C=C1C(=O)O[C@@H]2[C@H]3O[C@]3(C)CCC3C(=CCC4=C3C(O)C=CC4O)CC[C@@H]12` (stereo partly shown) [AB19]: in data set [1], the “anticancer activity (reduction of cancer cell viability)” value is listed as “potent anticancer activity against at least six cell lines” and the “anticancer activity profile (cytotoxicity spectrum / cancer-type specificity)” value is “intermediate”. `C=C1CC[C@H]2C(=C)C(=O)O[C@@H]2[C@@H]2O[C@]2(C)CCC/C=C\Cc2ccccc2C(=O)OC1` [AB24]: in data set [1], the “anticancer activity profile (cytotoxicity spectrum / cancer-type specificity)” value is “broad-spectrum cytotoxicity”. Still for that read-out and setting: then `C=C1C(=O)O[C@@H]2[C@H]3O[C@]3(C)CC/C=C(\C)C(=O)C[C@@H]12` [JMB08], with “intermediate”; and `C=C/C1=C\CC[C@@]2(C)O[C@@H]2[C@H]2OC(=O)C(=C)[C@@H]2CC1` [AB20], with “high cancer-type specificity”.

On to `C=C1C(=O)O[C@@H]2[C@H]3O[C@]3(C)CCC3C(=CCC(C#N)(C#N)C3(C#N)C#N)CC[C@@H]12` (stereo partly shown) [AB17], for which the “anticancer activity (reduction of cancer cell viability)” value in data set [1] is reported as “lower activity against the same cell lines”. For `C=CCC[C@@]1(C)O[C@@H]1[C@H]1OC(=O)C(=C)[C@@H]1CCC(=C)C=O` [AB26], the “anticancer activity profile (cytotoxicity spectrum / cancer-type specificity)” value in data set [1] is “high cancer-type specificity”. As to `C=C(C)[C@@H]1C[C@H]2C(=C)C(=O)O[C@@H]2[C@H]2O[C@]2(C)CCC=CCCC(=O)O1` [AB10], the “anticancer activity profile (cytotoxicity spectrum / cancer-type specificity)” value in data set [1] is reported as “intermediate”. For the molecule `C=C(C)[C@@H]1C[C@H]2C(=C)C(=O)O[C@@H]2[C@@H]2O[C@]2(C)CCCC=CCc2ccccc2C(=O)O1` [AB25], in data set [1], the “anticancer activity profile (cytotoxicity spectrum / cancer-type specificity)” value was “broad-spectrum cytotoxicity”. Further, the “enhanced potency compared to PTL, based on half-maximal lethal dose (LD50)” value in data set [5] and in data set [6] was 210 fold throughout.

In the case of `C=C1C(=O)O[C@@H]2[C@H]3O[C@]3(C)CC/C=C3\COC(=O)O[C@H]3C[C@@H]12` [JMB02], the “anticancer activity (reduction of cancer cell viability)” value in data set [1] is on record as “less potent anticancer activity”.

As to `C=C1C(=O)O[C@@H]2[C@H]3O[C@]3(C)CC[C@@H]3C(=CCn4c(=O)n(-c5ccccc5)c(=O)n43)CC[C@@H]12` [AB16], in data set [1], the “anticancer activity (reduction of cancer cell viability)” value is on record as “potent anticancer activity against at least six cell lines” and the “anticancer activity profile (cytotoxicity spectrum / cancer-type specificity)” value is recorded as “intermediate”.
